{"source": "patent US20150196490A1", "about": "(priority 2011, published 2015)"}
{"system": "sweat production", "conditions": "human, in vivo", "units": {"greater effectiveness in reducing sweat production than placebo": "%", "greater reduction in sweat production than the control group": "%", "reduction in sweat production": "mg", "subjects with at least a 30% reduction in sweat production compared to Baseline": "%"}}
{"compound": "CCCCCCCCCCCCCC(=O)OC(C)C", "note": "[Isopropyl Myristate]", "greater effectiveness in reducing sweat production than placebo": 191, "greater reduction in sweat production than the control group": 195, "reduction in sweat production": 103, "subjects with at least a 30% reduction in sweat production compared to Baseline": 55}
{"compound": "CCCOC(=O)c1ccc(O)cc1", "note": "[Propylparaben]", "greater effectiveness in reducing sweat production than placebo": 245, "greater reduction in sweat production than the control group": 337, "reduction in sweat production": 177, "subjects with at least a 30% reduction in sweat production compared to Baseline": 70}
{"compound": "Polysorbate 80", "greater effectiveness in reducing sweat production than placebo": 280, "greater reduction in sweat production than the control group": 300, "reduction in sweat production": 159, "subjects with at least a 30% reduction in sweat production compared to Baseline": 80}
